Experimental data reported in patent US7078585B1, “Bacterial cell component-unresponsive model mouse” (Japan Science and Technology Agency, priority 1999, dated 2006).
“Also recorded” adds a separate entry of the source. Like-named read-outs stand apart in the source and are kept apart here. Each block holds one molecule with its values, some of them ahead of it.

Tests used:
[1] = tested on: thymocytes; experiment: Thymocyte (T cell) proliferation with IL-1 costimulation ([3H]thymidine); assay type: cell-based, mouse; details: 100 U/ml with PHA, ConA or IL-2, 72 hours
Description: Proliferation of T cells were examined by measuring [^3H] amount of [^3H] thymidine taken into the cells.

[2] = tested on: mice; experiment: IL-1-induced acute phase protein mRNA in liver and serum TNF-α/IL-6 after intravenous injection; assay type: in vivo, mouse; details: 1 μg intravenously, 2 hours
Description: MyD88 knockout mice of the present invention were intravenously injected with 1 μg of […] (Genzyme), and 2 hours later liver and sera were taken. Total RNA was extracted from the liver using Trizol reagent (GIBCO). This RNA (10 μg) was electrophoresed and transferred to a nylon membrane, then Northern blot analysis was conducted with ^32P-labelled cDNA for acute phase proteins such as serum amyloid A (SAA-I), serum amyloid P(SAP), and haptoglobin (HP).
Because IL-1 induces production of […], increase of TNF-α and IL-6 concentrations in serum taken from MyD88 knockout mice of the present invention and wild-type littermates by the above-stated method were measured by ELISA.

[3] = tested on: AP-1; experiment: AP-1-dependent reporter activity after IL-18 treatment; assay type: cell-based; details: stimulation with IL-18
Description: Next, it was examined whether the dominant negative MyD88 mutant blocked IL-18-induced NF-κB activation as well. COS-7 cells were transiently transfected with MyD88 (amino acid 152–296) expression vector together with NF-κB-dependent luciferase reporter gene, and luciferase activity after IL-18 treatment was measured. Coexpression of MyD88 blocked IL-18-induced activation almost completely (see FIG. 7).
Because IL-18 activates AP-1-dependent gene information, whether MyD88 (amino acid 152–296) also acted as a dominant negative mutant of IL-18-induced AP-1 activation was investigated. Stimulation with IL-18-induced an approximately 3- to 4-fold increase in AP-1 activity, and this activation was blocked by coexpression of MyD88 (amino acid 152–296) (see FIG. 7).

[4] = tested on: splenic T cells; experiment: IFN-γ production by splenic cells / splenic T cells (ELISA); assay type: cell-based, mouse; details: 20 ng/ml, 24 hours
Description: Further, splenic B cells of MyD88 knockout mice of the present invention and their wild-type littermates were stimulated by 20 ng/ml of IL-18 and cultured for 24 hours in vitro, then production of IFN-γ in culture supernatants was measured by ELISA.
Splenic T cells of MyD88 knockout mice of the present invention and their wild-type littermates, which were purified to 95% or over, were cultured on anti-CD3 antibody (20 μg/ml)(PharMingen)-coated plates in the presence of 2 ng/ml IL-12. 4 days after the onset of culture, cells were harvested and washed with Hanks' balanced salt solution. The washed cells (2×10^5) were stimulated and cultured again on anti-CD3 antibody (20 μg/ml)-coated 96-well plates for 24 hours with 20 ng/ml of IL-18 or 2 ng/ml of IL-12. Concentration of IFNγ in culture supernatants was determined by ELISA and compared.
MyD88 knockout mice of the present invention and their wild-type littermates were intraperitoneally injected with 500 μg of heat-killed Propionibacterium acnes (P. acnes). […] Concentration of IFN-γ in culture supernatants was determined by ELISA. […] 14 days after injection, T cells were purified from spleen, then cultured and stimulated for 24 hours, as described above, subsequently concentration of IFN-γ was measured.

[5] = tested on: NF-κB; experiment: NF-κB DNA binding activity (electrophoretic / gel mobility shift assay); assay type: cell-based, mouse
Description: Splenic T cells cultured in the presence of IL-12 and anti-CD3 antibody for 4 days were starved for 3 hours and then stimulated with IL-18. Nuclei extracted from the stimulated cells were analyzed by a gel mobility shift assay using a specific probe containing NF-κB binding site.
NF-κB activation in response to LPS or PGN was also investigated. Macrophages of various kinds of mouse were stimulated with said LPS or PGN, then nuclear extracts from the macrophages were purified and incubated with a probe specific to DNA binding site of NF-κB, and visualized by electrophoretic mobility shift assay as described previously (Immunity 9, 143–150, 1998). The results are shown in FIGS. 21C and D. Arrows in FIGS. 21C and D indicate the position of a complex comprised of NF-κB and the specific probe, and arrowheads indicate the position of specific probe only.
(§1) In order to examine whether a lipoprotein/lipopeptide activates intracellular signaling molecules with the results of example 16, peritoneal macrophages of the 4 kinds of mouse (1×10^6) were stimulated with 0.3 ng/ml of R-MALP-2 for 10 minutes, and in vitro kinase assay (Auto in FIG. 25A), Western blot analysis (WB in FIG. 25A), electrophoretic mobility shift assay (FIG. 25B) were conducted with anti-IRAK antibody as in example 12. In addition, in vitro kinase assay (Auto in FIG. 25C) and Western blot analysis (WB in FIG. 25C) with anti-JNK1 antibody were also conducted.

[6] = tested on: JNK; experiment: JNK activation (in vitro kinase assay); assay type: cell-based, mouse
Description: In addition to induction of NF-κB activation, IL-1 is also known to activate c-Jun N-terminal kinase (JNK). To test whether IL-18 induces JNK activation, an in vitro kinase assay was carried out using GST-c-Jun-fusion protein as a […]. […] IL-18-induced NF-κB and JNK activation was impaired in MyD88-deficient mice.
as §1

[7] = tested on: YAC-1 targeting cells; experiment: NK lytic activity against 51Cr-labelled YAC-1 target cells; assay type: cell-based, mouse; details: 24 hours
Description: It has been well known that IL-18 enhances lytic activity of NK cells. Splenic […] from MyD88 knockout mice of the present invention and wild-type littermates were cultured in the presence or absence of 20 ng/ml of IL-18 (Hayashibara Biochemical Laboratories, Inc.) for 24 hours with ^51Cr-labelled mouse lymphoma cells (hereinafter “YAC-1”) targeting cells. 4 hours later, released ^51Cr in supernatants were counted by a gamma counter.

[8] = tested on: peritoneal macrophages; experiment: IL-6 (ELISA) and NO2^− (Greiss method) production by peritoneal macrophages; assay type: cell-based, mouse; details: for production of IL-6: 24 hours; for production of NO2^−: in the presence of IFN-γ (30 unit/ml)
Description: Each of TLR2 knockout (TLR2−/−), TLR4 knockout (TLR4−/−) and wild-type (wild-type) mice were intraperitoneally injected with 2 ml of 4% thioglycollate medium (DIFCO). Three days later, peritoneal exudate cells were isolated from the peritoneal cavity of each mouse. These cells were cultured in RPMI1640 medium (GIBCO) supplemented with 10% fetal bovine serum (GIBCO) for 2 hours at 37° C. and washed with ice-cold Hank's buffered salt solution (HBSS; GIBCO) to remove nonadherent cells. Adherent cells were used as peritoneal macrophages for following experiments.
Synthetic lipid A, which was soluble in endotoxin-free water and containing 0.025% of triethylamine, was used as said synthetic lipid A. After the culture, production amounts of IL-6 (FIG. 17A), TNF-α (FIG. 17B) and NO2^− (FIG. 17C) in culture supernatants were measured. Production amount of IL-6 was measured by enzyme-linked immunosorbent assay (ELISA; ENDOGEN), and that of TNF-α was measured by ELSIA, according to manufacturer (Genzyme)'s instructions, and that of NO2^31 was measured by the Greiss method using NO2/NO3 Assay Kit (Dojindo Laboratories).

[9] = tested on: peritoneal macrophages; experiment: TNF-α production by stimulated peritoneal macrophages (ELISA); assay type: cell-based, mouse
[10] = tested on: splenic B cells; experiment: MHC class II (I-A^b) expression on splenic B cells (flow cytometry); assay type: cell-based, mouse; details: 48 hours
Description: The expression of major histocompatibility complex (MHC) class II (I-A^b molecule) on the surface of splenic B cells in response to Re-595LPS was examined by flow cytometry. Splenic B cells (1×10^6) from each of the wild-type, MyD88- and TLR4-deficient mice were cultured for 48 hours in the presence of various concentrations (0, 0.01, 0.1, 1, 10 or 100 μg/ml) of LPS. After the culture, the cells were collected and then stained by combining I-A^b molecule on the surface of the cells and FITC-labelled antibody which is constructed by combining phycoerythrin (PE; PharMingen)-conjugated anti-B220 antibody or biotinylated anti-mouse I-A^b antibody (PharMingen) and fluorescein […] (FITC; PharMingen)-conjugated streptavidin. The stained cells were analyzed on fluorescence-activated cell sorter Calibur (FACS Calibur) using CELLQuest software (Becton Dickinson).
Next, Splenic B cells (1×10^6) from each of the wild-type, MyD88- and TLR4-deficient mice were cultured for 48 hours in the presence or absence of 100 U/ml of IL-4, and then stimulated. Subsequently, the cells were stained by combining I-A^b molecule on the surface of the splenic B cells and PE-conjugated anti-B220 antibody or FITC-conjugated anti-mouse I-A^b antibody. The cell proliferation was measured on fluorescence-activated cell sorter Calibur using CELLQuest software (see FIG. 9B).
In addition, the expression of major histocompatibility complex (MHC) class II (I-A^b) on the surface of B cells in response to Re-595 LPS was examined by flow cytometry. Splenic B cells (1×10^5) of each of wild-type, TLR2 knockout (2−/−) and TLR4 knockout (4−/−) mice were isolated and cultured for 48 hours in 96-well plates with various concentrations (0, 10^1, 10^2, 10^3, 10^4 or 10^5 ng/ml) of LPS or 100 U/ml of IL-4. […] The stained cells were analyzed on fluorescence-activated cell sorter Calibur (FACS Calibur) using CELLQuest software (Becton Dickinson) (FIG. 18B).

[11] = tested on: peritoneal macrophages; experiment: I-A^b expression in peritoneal macrophages after intraperitoneal IFN-γ; assay type: in vivo, mouse; details: 5000 U intraperitoneally, three days after injection
Description: Each of wild-type, MyD88- and TLR4-deficient mice were intraperitoneally injected with 5000 U of IFN-γ (Genzyme) or PBS. Three days after injection, peritoneal macrophages were collected and stained by combining I-A^b molecule on the surface of the macrophage membranes and FITC-conjugated anti-mouse I-A^b antibody, then analyzed by fluorescence-activated cell sorter Calibur using CELLQuest software (see FIG. 9C).

[12] = nuclear extracts of wild-type cells
[13] = peritoneal macrophages of TLR2 knockout mice
[14] = peritoneal macrophages of wild-type mice

Molecule: IL-1β: IL-1β (Genzyme), cytokine
- proliferation of thymocytes ([1]; MyD88 knockout mice): almost no enhanced proliferation
- proliferation of thymocytes ([1]; wild-type littermates): displayed enhanced proliferation
- IL-6 concentration in serum ([2]; MyD88 knockout mice): neither TNF-α nor IL-6 concentration increased
- TNF-α concentration in serum ([2]; MyD88 knockout mice): neither TNF-α nor IL-6 concentration increased
- increase of mRNA expression of acute phase proteins (SAA-I, SAP, HP) in liver ([2]; MyD88 knockout mice): not observed in MyD88 knockout mice
- increase of mRNA expression of acute phase proteins (SAA-I, SAP, HP) in liver ([2]; wild-type littermates): increase of induction was observed in wild-type mice
- IL-6 concentration in serum ([2]; wild-type mice): TNF-α and IL-6 concentrations increased
- TNF-α concentration in serum ([2]; wild-type mice): TNF-α and IL-6 concentrations increased

- JNK activation ([6]; Th1-developing cells of wild-type mice): induced JNK activation
Molecule: IL-18: IL-18 (Hayashibara Biochemical Laboratories, Inc.), cytokine
- increase in AP-1 activity [3]: 3- to 4 fold
- production of IFN-γ ([4]; splenic cells / T cells of MyD88 knockout mice): production of IFN-γ was not observed; also recorded: cannot enhance IL-18-responsive production of IFNγ; also recorded: could not be enhanced
- production of IFN-γ ([4]; splenic cells / T cells of wild-type mice): production of IFN-γ was induced; also recorded: high level of IFN-γ production in response to IL-18 was observed
- NF-κB DNA binding activity / NF-κB activation [5, 12]: detected in the nuclear extracts from wild-type cells
- JNK activation ([6]; MyD88-deficient cells): IL-18-induced JNK activation was not observed
- lytic activity to YAC-1 targeting cells ([7]; splenic cells of MyD88 knockout mice): not enhanced
- lytic activity to YAC-1 targeting cells ([7]; splenic cells of wild-type mice): dramatically enhanced

- JNK activation ([6]; MyD88-deficient cells): normal activation of JNK was observed
Molecule: TNF-α
- NF-κB DNA binding activity / NF-κB activation ([5]; nuclear extracts of MyD88-deficient cells): almost the same levels of NF-κB DNA binding activity
- NF-κB DNA binding activity / NF-κB activation [5, 12]: almost the same levels of NF-κB DNA binding activity

Molecule: lipid A
- production of IL-6 [8, 13]: produced IL-6 and TNF-α
- production of NO2^− [8, 13]: production of NO2^− was confirmed
- production of IL-6 ([8]; peritoneal macrophages of TLR4 knockout mice): produced neither IL-6 nor TNF-α
- production of IL-6 [8, 14]: produced IL-6 and TNF-α
- production of NO2^− [8, 14]: production of NO2^− was confirmed
- production of TNF-α [9]: produced IL-6 and TNF-α
- production of TNF-α ([9]; peritoneal macrophages of TLR4-deficient mice, 24 hours): produced neither IL-6 nor TNF-α

B1: IL-4: IL-4 (Genzyme), cytokine (protein, UniProt P05112 25-153, looked up)
Interleukin-4: HKCDITLQEIIKTLNSLTEQKTLCTELTVTDIFAASKNTTEKETFCRAATVLRQFYSHHEKDTRCLGATAQQFHRHKQLIRFLKRLDRNLWGLAGLNSCPVKEANQSTLENFLERLKTIMREKYSKCSS
- expression of I-A^b molecule ([10]; splenic B cells of MyD88-deficient mice): showed same reaction as those of wild-type mice
- expression of I-A^b molecule ([10]; splenic B cells of TLR2 knockout mice): normal expression of I-A^b molecule
- expression of I-A^b molecule ([10]; splenic B cells of TLR4-deficient mice): showed same reaction as those of wild-type mice; also recorded: normal expression of I-A^b molecule

B2: IFN-γ: IFN-γ (Genzyme), cytokine (protein, UniProt P01579 24-161, looked up)
Interferon gamma: QDPYVKEAENLKKYFNAGHSDVADNGTLFLGILKNWKEESDRKIMQSQIVSFYFKLFKNFKDDQSIQKSVETIKEDMNVKFFNSNKKKRDDFEKLTNYSVTDLNVQRKAIHELIQVMAELSPAAKTGKRKRSQMLFRG
- expression of I-A^b molecule in peritoneal macrophages [11]: comparative among wild-type, MyD88- and TLR4-deficient mice
